According to patent US12410237B2, “Methods for purifying proteins having a tubulin carboxypeptidase activity and peptidic based inhibitors thereof” (CENTRE NATIONAL DE LA RECHERCHE SCIENTIFIQUE, priority 2017, dated 2025):
“Also recorded” adds a separate entry of the source.

What was measured:
[1] = test system: native TCPase activity in brain MAPs; test: detyrosination assay with 3H-tyrosine labelled microtubules and isolated brain MAPs; assay type: biochemical, pig; conditions: for inhibition of TCP activity in the MAPs fraction by peptides (in words): brain-derived MAPs, FIG. 11A; for inhibition of native TCPase activity in brain MAPs (in words): protease inhibitor treatment of brain MAPs, FIG. 5
Method: An assay involving radioactively labelled tyrosine (^3H—Y) was used to quantitatively determine the TCPase activity. Brain tubulin was isolated and purified and radioactively labelled with *Y by recombinant TTL. To do so, recombinant bacterially expressed purified TTL (>90% purity) was put in contact with micrograms of pig brain purified tubulin. The reaction sample was incubated for one hour at 37° C. in presence of radioactively labelled ^3H—Y and ATP. Following incorporation of ^3H—Y to tubulin, a polymerization cycle was performed by adding GTP and incubating for 30 min at 37° C. Next the samples are centrifuged and the obtained pellet was washed twice with PEM buffer. The resulting radioactively labelled MTs were store at −80° C. until further testing. […] After obtaining both purified recombinant TCPase candidate and radioactively labelled MTs, the proteins were put into contact and various amounts of TCPase were presented to MTs. Removal of the radioactive tyrosine by the candidate detyrosinase was measured by quantification of radioactivity in both the soluble and insoluble fraction of the reaction using a liquid scintillator counter.
To further gain insights in the potential protease that could embody the TCPase activity, the isolated MAPs from crude brain extracts were exposed to a selection of specific Cysteine, Aspartic, Metallo and Serine proteinase inhibitors were tested on the extract.
Recombinant bacterially expressed purified TTL (>90% purity) was put in contact with micrograms of pig brain purified tubulin. The reaction sample was incubated for one hour at 37° C. in presence of radioactively labeled ^3H—Y and ATP. Following incorporation of ^3H—Y to tubulin, a polymerization cycle was performed by adding GTP and incubating for 30 min at 37° C. Next, the samples were centrifuged and the obtained pellet was washed twice with PEM buffer. The resulting radioactively labeled MTs were store at −80° C. until further testing. The isolated MAPs from crude brain extracts (as obtained in example 1) were contacted to the radioactively labeled MTs in absence or presence of different peptidic inhibitors or an increasing concentration of peptidic inhibitor. Release of radioactive tyrosine by native TCPase containing brain MAPs was measured by quantification of radioactivity in both the soluble and insoluble fraction of the reaction using a liquid scintillator counter.

C2C12 cells = test: C2C12 myogenic differentiation, immunoblot of tubulin detyrosination and acetylation; assay type: cell-based, mouse; conditions: C2C12 myogenic differentiation time-course, FIG. 12
Method: C2C12 cells is an immortal cell line of mouse skeletal myoblasts originally derived from satellite cells from the thigh muscle cells. C2C12 cells were routinely grown at 37° C. in a CO2 incubator. Myogenic differentiation is initiated upon reaching confluence by switching the cells to medium containing 2% horse serum. Cells were collected at start of the myogenic differentiation and every two days over a period of 6 days for molecular analysis.
To further study the use of a TCPase inhibitor, C2C12 cells were treated with or without EEY peptide (FIG. 12). The protein expression of Myosin was monitored by western blotting as control for muscle differentiation. Vinculin acts as loading control. Acetylation and detyrosination of the microtubules was assessed. Whereas acetylation increases during differentiation (Ac-Tubulin) no difference in the status could be observed in the treated cells.

Molecule	inhibition of TCP activity in the MAPs fraction by peptides (in words) [1]	acetylation of the microtubules (Ac-Tubulin) (C2C12 cells)	tubulin detyrosination levels (Δ1-tubulin) (C2C12 cells)	inhibition of native TCPase activity in brain MAPs (in words) [1]
EEY: tripeptide EEY inspired by the C-terminal sequence of alpha-tubulin, TCP inhibitor	almost fully inhibited	no difference	clearly inhibited detyrosination; also recorded: decrease	–
NC(=O)CI [Iodoacetamide, reference compound]	–	–	–	complete inhibition
CC(C)C[C@H](NC(=O)[C@H]1O[C@@H]1C(=O)O)C(=O)NCCCCN=C(N)N [E64, reference compound]	–	–	–	complete inhibition
EDY: three amino acid peptide EDY inspired by the C-terminal sequence of tubulin	partially blocked	–	–	–
